From PMC9105583, “Stereoselective Synthesis and Anticancer Activity of 2,6-Disubstituted trans-3-Methylidenetetrahydropyran-4-ones” (Materials, 2022)

Columns and labels:
Assay type in all cases: cell-based, human
[1] = system: cleaved PARP in HL-60 cells; assay: Cleaved PARP (Asp214) detection, flow cytometry; settings: compound at 2IC50 concentration, 24 h; control 0.7 ± 0.13%
Procedure: (§1) Analysis of apoptosis, DNA damage and cell cycle
(§2) Apoptosis, DNA damage, proliferation and cell cycle kinetics were investigated using the Apoptosis, DNA Damage and Cell Proliferation Kit (BD Biosciences, San Jose, CA, USA) according to the manufacturer’s protocol. Briefly, HL-60 cells (2.0 × 10^5 cells/mL) were seeded in 6-well plates and left to grow for 24 h. Then, the cells were treated with 13d or 13g at IC50 and 2IC50 concentrations. After 24 h incubation, the cells were treated with BrdU solution for 8 h. Then, the cells were collected by centrifugation, fixed and permeabilized. To expose the incorporated BrdU, the cells were incubated with DNase (300 µg/mL in PBS) for 1 h at 37 °C. Afterwards, the cells were stained with fluorescent antibodies, including Anti-BrdU, Anti-Cleaved PARP (Asp214) and Anti-H2AX (pS139) for 20 min at room temperature. Total DNA for cell cycle analysis was stained using DAPI solution (1 µg/mL in staining buffer). Finally, the cells were analyzed by flow cytometry using CytoFLEX (Beckman Coulter, Inc., Brea, CA, USA) and the data analysis was performed with Kaluza Analysis Software v2 (Beckam Coulter, Inc., Brea, CA. USA).
Another hallmark of apoptosis is cleavage of poly(ADP-ribose) polymerase 1 (PARP1) into 24 kDa and 89 kDa fragments executed by caspases 3 and 7. […]

[2] = system: HUVEC cells; assay: MTT assay, metabolic activity (cytotoxicity), normal cell line; settings: Homo sapiens, HUVEC, 48 h incubation, mean ± SEM
Procedure: Metabolic activity by MTT assay
The MTT (3-([…])-2,5-diphenyl tetrazolium bromide) assay was performed to assess the cytotoxicity of the investigated compounds. Briefly, HL-60, MCF-7 and HUVEC cells were seeded in 24-well plates at density of 8 × 10^4/mL. After 24 h incubation, cells were treated with various concentrations of the compounds and incubated for another 24 h or 48 h. Then, the cells were incubated with MTT solution (100 µL; 5 mg/mL in PBS) for 1.5 h and centrifuged. The formazan product was dissolved in DMSO, and the absorption was measured using FlexStation 3 Multi-Mode Microplate Reader (Molecular Devices, LLC, San Jose, CA, USA) at 560 nm. Assays were performed twice in triplicate for each analog.
The cytotoxic activity of the obtained methylidenetetrahydropyran-4-ones was investigated in two cancer cell lines, human promyelocytic leukemia (HL-60) and breast cancer adenocarcinoma (MCF-7), and in healthy umbilical vein endothelial cells (HUVEC), for comparison. An anticancer drug, carboplatin, was used as a reference compound. Metabolic activity of the cells was assessed after 48 h incubation with various concentrations of the analogs (Table 6). Purity of all final compounds was determined on the basis of their ^1H NMR spectra (signal-to-noise ratio and presence of unidentified signals) and was at least 98%, in most cases even over 99%.

[3] = system: HL-60 cells; assay: Cell morphology by light microscope; settings: IC50 and 2IC50, 24 h
Procedure: HL-60 cells were treated with compound 13d or 13g at IC50 and 2IC50 for 24 h. Then, the cells were examined for morphological changes using a light microscope at 40x magnification and photographed.
HL-60 cells grow in suspension and usually have a roughly spherical shape.

[4] = system: HL-60 cells; assay: BrdU incorporation (proliferation), flow cytometry; settings: 24 h, then BrdU 8 h
Procedure: as §1, §2
To examine the influences of the investigated compounds on HL-60 cell proliferation, cells were exposed to a thymidine analog, bromodeoxyuridine (BrdU), that incorporates into newly synthesized DNA during proliferation.

[5] = compound at 2IC50 concentration

Row | SMILES | population of cells with cleaved PARP [1] | IC50 [2] | morphological changes of the cells [3] | BrdU-incorporating cell population [4, 5] | BrdU-incorporating cell population ([4]; compound at IC50 concentration)
1 | C=C1C(=O)C[C@H](C(C)C)O[C@H]1C(C)C (relative stereo) [Analog 13d, Trans-2,6-diisopropyl-3-methylidenetetrahydro-4H-pyran-4-one] | 49.0 ± 1.61% | 24.7 ± 0.65 µM | induced several morphological changes | 26.4 ± 6.9% | 31.5 ± 1.65%
2 | C=C1C(=O)C[C@H](c2ccccc2)O[C@H]1C(C)C (relative stereo) [Analog 13g, Trans-2-isopropyl-3-methylidene-6-phenyltetrahydro-4H-pyran-4-one] | 13.5 ± 3.6% | 3.84 ± 0.01 µM | induced several morphological changes | 31.9 ± 6.02% | 35.3 ± 1.23%
